Source: the NIST ThermoML archive (doi:10.1016/j.jct.2015.06.024)

Assay: mn = molality of the nth substance listed, in mol/kg
Settings: 84.5 kPa, Liquid; for speed of sound: Frequency=3 MHz, Sing-around technique in a fixed-path interferometer; for mass density: Vibrating tube method

O=C(O)[C@@H]1CCCN1 [L-proline] + O
Settings	mass density, 288.15 K [kg/m3]	mass density, 293.15 K [kg/m3]	mass density, 298.15 K [kg/m3]	mass density, 303.15 K [kg/m3]	mass density, 308.15 K [kg/m3]	speed of sound, 288.15 K [m/s]	speed of sound, 293.15 K [m/s]	speed of sound, 298.15 K [m/s]	speed of sound, 303.15 K [m/s]	speed of sound, 308.15 K [m/s]
m1 = 0.04355	1000.55	999.631	998.453	997.041	995.413	1470.3	1486.1	1500.1	1512.3	1522.8
m1 = 0.05237	1000.84	999.916	998.737	997.322	995.693	1471	1486.8	1500.8	1512.9	1523.4
m1 = 0.06122	1001.13	1000.21	999.025	997.607	995.975	1471.7	1487.6	1501.5	1513.6	1524
m1 = 0.06959	1001.41	1000.48	999.295	997.877	996.241	1472.5	1488.2	1502.1	1514.2	1524.6
m1 = 0.07882	1001.71	1000.78	999.588	998.167	996.529	1473.2	1488.9	1502.8	1514.8	1525.2
m1 = 0.08768	1002	1001.07	999.877	998.452	996.813	1474	1489.6	1503.5	1515.4	1525.8
m1 = 0.09661	1002.3	1001.36	1000.16	998.734	997.093	1474.7	1490.3	1504.1	1516.1	1526.4
m1 = 0.1056	1002.59	1001.65	1000.45	999.02	997.377	1475.4	1491	1504.7	1516.7	1526.9
m1 = 0.1234	1003.17	1002.23	1001.02	999.585	997.937	1476.8	1492.3	1506	1517.9	1528.1
m1 = 0.1414	1003.76	1002.8	1001.59	1000.15	998.498	1478.3	1493.7	1507.3	1519.1	1529.3
m1 = 0.1591	1004.34	1003.37	1002.15	1000.71	999.051	1479.8	1495.2	1508.7	1520.5	1530.6
m1 = 0.1775	1004.93	1003.96	1002.74	1001.28	999.622	1481.3	1496.6	1510.1	1521.8	1531.8
m1 = 0.1955	1005.51	1004.53	1003.3	1001.85	1000.18	1482.8	1498	1511.4	1523	1533
m1 = 0.2134	1006.09	1005.1	1003.87	1002.4	1000.73	1484.2	1499.4	1512.6	1524.2	1534.1

CCCO [propan-1-ol] + O
Settings	mass density, 288.15 K [kg/m3]	mass density, 293.15 K [kg/m3]	mass density, 298.15 K [kg/m3]	mass density, 303.15 K [kg/m3]	mass density, 308.15 K [kg/m3]	speed of sound, 288.15 K [m/s]	speed of sound, 293.15 K [m/s]	speed of sound, 298.15 K [m/s]	speed of sound, 303.15 K [m/s]	speed of sound, 308.15 K [m/s]
m1 = 0.01666	998.928	998.029	996.868	995.468	993.851	1467.6	1483.5	1497.7	1509.9	1520.5
m1 = 0.03333	998.757	997.859	996.698	995.295	993.677	1468.6	1484.5	1498.5	1510.7	1521.3
m1 = 0.0494	998.594	997.697	996.534	995.132	993.506	1469.5	1485.4	1499.3	1511.5	1521.9
m1 = 0.06674	998.419	997.52	996.356	994.954	993.328	1470.6	1486.4	1500.3	1512.3	1522.7
m1 = 0.08313	998.254	997.355	996.19	994.787	993.156	1471.7	1487.3	1501.1	1513.1	1523.3
m1 = 0.1002	998.081	997.18	996.013	994.609	992.983	1472.7	1488.3	1502	1513.8	1524
m1 = 0.134	997.747	996.843	995.676	994.267	992.634	1474.8	1490.1	1503.6	1515.4	1525.4
m1 = 0.1662	997.429	996.526	995.356	993.945	992.305	1476.8	1491.9	1505.3	1516.9	1526.8
